From patent US7851638B2, “Cyclohexanesulfonyl derivatives as GLYT1 inhibitors to treat schizophrenia” (Merck Sharp & Dohme Limited, priority 2005, dated 2010) come the findings set out here.

A word on the melting point: it is the temperature, or range, at which the solid turns liquid. As to `Cc1nc(C(F)(F)F)ccc1C(=O)NCC1(CC2CC2)CCC(S(=O)(=O)CC2CC2)CC1` (stereo not shown) [Example 3, N-(4-Cyclopropylmethanesulfonyl-1-cyclopropylmethyl-cyclohexylmethyl)-2-methyl-6-trifluoromethyl-nicotinamide], the melting point was in the range of 148 to 151 °C.
